Like-named read-outs stand apart in the source and are kept apart here.
Legend:
in vivo [1] = details: rat
From the text: (§4) This Fabs parameter was then adjusted to bioavailability (F) by correction for hepatic extraction. […] The clinical dosing frequency desired was assumed to be once daily.

MMP13 = assay: Histamine induced acute articular inflammation in mouse: MMP13 fluorokine ELISA of cartilage extract; format: in vivo; details: for cartilage extract MMP13 levels: C57B16 mice, oral
Experimental: (§1) At 1-hour post oral treatment with either vehicle hydroxypropyl methylcellulose (HPMC) or E1, C57B16 mice were anaesthetized under isofluorane by inhalation. An H1 specific receptor antagonist desloratadine (5 mg/kg) was used as a positive control. The left hind knee was shaved, dampened with 70% ethanol and injected intra articularly into the knee joint (6 μl volume) with either saline or histamine (5 μM) using a glass Hamilton syringe and 30-gauge needle. Mice were allowed to recover in their home cage and kept on study for 48 hours post injection and dosed with compound.
(§2) After synovial lavage, the joint was disarticulated and cartilage was removed with a scalpel from the tibial plateau & femoral condyle, taking care to minimise the amounts of bone. Cartilage samples were weighed and snap frozen. The cartilage from individual animals was extracted in 200 μl high salt buffer (HSB) overnight at 4° C. with gentle agitation.
(§3) Samples were centrifuged at 10000 rpm for 10 min and the HSB cartilage extract decanted and stored at −80° C. prior to analysis.
MMP13 fluorokine ELISA (96-Well Plate Format)
HSB cartilage extracts were tested in duplicate at a 1:5 dilution. There were no deviations from the kit instructions (F13M00, R&D Systems) and the plate was read using an excitation wavelength of 320 nm and an emission wavelength of 405 nm.

[2] = rat, in vivo
From the text: as §4

[3] = Mouse PK in low dose pharmacodynamic study (micro-sampling, LC-MS/MS); format: in vivo; details: mice, oral 0.1, 0.001 and 0.0001 mg/kg b.i.d. for 48 hrs, blood
Experimental: Mice were weighed and orally dosed according to weight at a dose volume of 10 ml/kg (dosed at 0.1 mg/kg, 0.001 mg/kg and 0.0001 mg/kg b.i.d. for 48 hrs). The PK and low dose pharmacodynamic studies were performed in the same group of animals.
Individual mice were repeatedly sampled at various timepoints over the 48 hr duration of the study by taking small volumes of blood by micro-sampling technique. After heating and mild restrain behind a Perspex stand, the tip of the tail was pricked with a 24 gauge needle and whole blood collected into an EDTA 20 μl glass micro sampling tubes. The 20 μl blood sample was then mixed with 80 μls of distilled water and frozen until analysis.
At study termination the mice were culled using CO2 gas. A blood volume of about 0.4 mL was obtained by cardiac puncture. A volume of whole blood was then mixed with distilled water to lyse the cells (ratio 1:1) and stored for analysis.

[4] = tested on: S-GAG (aggrecanase activity); assay: Histamine induced acute articular inflammation in mouse: S-GAG analysis (DMMB assay) of cartilage extract; format: in vivo; details: C57B16 mice, oral
Experimental: as §1, §2, §3
HSB cartilage extracts were digested with hyaluronidase (110 units/ml) 37° C. for 3 hrs followed by papain digestion at 60° C. overnight. Digested samples were then centrifuged at 12000 g for 15 minutes. […] The plate was read immediately at 532 nm and 620 nm wavelengths and data calculated as O.D 532 nm/O.D 620 nm minus background. […]

Human dose prediction = details: used for human Vss estimate
From the text: Human dose prediction for clinical studies requires an estimate of human PK parameters important for defining the elimination T1/2 and the shape and magnitude of the plasma concentration vs time profile at a particular dose. These estimated parameters include Clearance, Volume of Distribution at Steady State (Vss), absorption rate constant (Ka), bioavailability (F) and dosing frequency. Human dose predictions also require some pharmacological evidence as to how exposure relates to efficacy (McGinnity, Collington, Austin & Riley, Current Drug Metabolism 2007 8 463-479).
Having defined the shape and magnitude of the human plasma concentration vs time curve, the final step was to adjust the dose so that plasma concentrations are attained that are likely to achieve efficacy. […] It was impossible to quantify the compound at these dose levels; consequently plasma concentrations observed at a higher oral dose (about 1 mg/kg) were extrapolated down to that likely at efficacious doses, assuming linear kinetics between the two. Finally, in the absence of a real PK/PD relationship in the mouse, it was assumed that efficacy in humans would be related to plasma AUC. Consequently, the human dose was adjusted to give, in conjunction with the estimated human PK parameters defined above, a human AUC value similar to that observed in mouse at efficacious doses.

in vivo [5] = details: mouse
Experimental: In order to gain confidence in predicting circulating levels, mouse PK at 1 mg/kg oral dosing was subsequently carried out.
Blood concentrations are given in nM.

in vivo [6] = details: guinea pig
From the text: as §4

[7] = In vivo PK in dog (Vss, Fabs)
From the text: as §4

For `CNCc1ccc(-c2cnc3c(c2)C[C@@]2(CN4CCC2CC4)O3)s1` [Example E1, N-methyl-1-{5-[(2R)-3′H-spiro[4-azabicyclo[2.2.2]octane-2,2′-furo[2,3-b]pyridin]-5′-yl]-2-thienyl}methanamine], the Vd (in vivo [1]) was 35.5 L/kg, the “cartilage extract MMP13 levels” value (MMP13; 0.0001 mg/kg b.i.d. for 48 hrs (further study, FIG. 6)) was “decreased levels of MMP13” and the “cartilage extract MMP13 levels” value (MMP13; 0.001 mg/kg b.i.d. for 48 hrs (further study, FIG. 6)) was “decreased levels of MMP13”. For the same molecule, the “cartilage extract MMP13 levels” value (MMP13; 0.1 mg/kg b.i.d. for 48 hrs (further study, FIG. 6)) was “decreased levels of MMP13”, the “cartilage extract MMP13 levels” value (MMP13; 0.1 mg/kg b.i.d. for 48 hrs, tibial cartilage (first study, FIG. 4)) was “decreased levels of MMP13” and the “cartilage extract MMP13 levels” value (MMP13; 1 mg/kg b.i.d. for 48 hrs, tibial cartilage) was “decreased levels of MMP13”. For the same molecule, the “cartilage extract MMP13 levels” value (MMP13; 1 mg/kg once over the 48 hr study period, tibial cartilage) was “decreased levels of MMP13”, the “dose at which efficacy against MMP down-regulation and joint swelling was observed (as low as)” value (MMP13; mouse PD studies) was 0.1 µg/kg and the “Fabs (fraction absorbed)” value [2] was 83%. The circulating levels [3] was “could not be detected in many animals”, the S-GAG cartilage levels ([4]; 1 mg/kg b.i.d. for 48 hrs) was “significantly reduced” and the S-GAG cartilage levels ([4]; 1 mg/kg single dose over 48 hr) was “significantly reduced”. The “Vss derived by simple allometry across rat and dog” value (Human dose prediction) was 5.7 L/kg, the concentration at 0 h (in vivo [5]; 0.001 mg/kg) was 0.0003 nM and the concentration at 0.17 h (in vivo [5]; 0.001 mg/kg) was 0.0017 nM. It also gave a concentration at 0.33 h (in vivo [5]; 0.001 mg/kg) of 0.0058 nM, a concentration at 0.5 h (in vivo [5]; 0.001 mg/kg) of 0.0081 nM and a concentration at 0.75 h (in vivo [5]; 0.001 mg/kg) of 0.0119 nM. For the same molecule, the concentration at 1 h (in vivo [5]; 0.001 mg/kg) was 0.0156 nM, the concentration at 2 h (in vivo [5]; 0.001 mg/kg) was 0.0266 nM and the concentration at 4 h (in vivo [5]; 0.001 mg/kg) was 0.0326 nM. It also gave a concentration at 6 h (in vivo [5]; 0.001 mg/kg) of 0.0332 nM, a concentration at 8 h (in vivo [5]; 0.001 mg/kg) of 0.0349 nM and a concentration at 10 h (in vivo [5]; 0.001 mg/kg) of 0.0297 nM. The concentration at 12 h (in vivo [5]; 0.001 mg/kg) was 0.0284 nM, the concentration at 24 h (in vivo [5]; 0.001 mg/kg) was 0.0172 nM and the concentration at 0 h (in vivo [5]; 0.01 mg/kg) was 0 nM. The concentration at 0.17 h (in vivo [5]; 0.01 mg/kg) was 0.02 nM, the concentration at 0.33 h (in vivo [5]; 0.01 mg/kg) was 0.06 nM and the concentration at 0.5 h (in vivo [5]; 0.01 mg/kg) was 0.08 nM. It also gave a concentration at 0.75 h (in vivo [5]; 0.01 mg/kg) of 0.12 nM, a concentration at 1 h (in vivo [5]; 0.01 mg/kg) of 0.16 nM and a concentration at 2 h (in vivo [5]; 0.01 mg/kg) of 0.27 nM. The concentration at 4 h (in vivo [5]; 0.01 mg/kg) was 0.33 nM, the concentration at 6 h (in vivo [5]; 0.01 mg/kg) was 0.33 nM and the concentration at 8 h (in vivo [5]; 0.01 mg/kg) was 0.35 nM. For the same molecule, the concentration at 10 h (in vivo [5]; 0.01 mg/kg) was 0.3 nM, the concentration at 12 h (in vivo [5]; 0.01 mg/kg) was 0.28 nM and the concentration at 24 h (in vivo [5]; 0.01 mg/kg) was 0.17 nM. For the same molecule, the concentration at 0 h (in vivo [5]; 0.03 mg/kg) was 0.01 nM, the concentration at 0.17 h (in vivo [5]; 0.03 mg/kg) was 0.05 nM and the concentration at 0.33 h (in vivo [5]; 0.03 mg/kg) was 0.17 nM. For the same molecule, the concentration at 0.5 h (in vivo [5]; 0.03 mg/kg) was 0.24 nM, the concentration at 0.75 h (in vivo [5]; 0.03 mg/kg) was 0.36 nM and the concentration at 1 h (in vivo [5]; 0.03 mg/kg) was 0.47 nM. It also gave a concentration at 2 h (in vivo [5]; 0.03 mg/kg) of 0.8 nM, a concentration at 4 h (in vivo [5]; 0.03 mg/kg) of 0.98 nM and a concentration at 6 h (in vivo [5]; 0.03 mg/kg) of 1 nM. For the same molecule, the concentration at 8 h (in vivo [5]; 0.03 mg/kg) was 1.05 nM, the concentration at 10 h (in vivo [5]; 0.03 mg/kg) was 0.89 nM and the concentration at 12 h (in vivo [5]; 0.03 mg/kg) was 0.85 nM. The concentration at 24 h (in vivo [5]; 0.03 mg/kg) was 0.52 nM, the concentration at 0 h (in vivo [5]; 0.1 mg/kg) was 0.03 nM and the concentration at 0.17 h (in vivo [5]; 0.1 mg/kg) was 0.17 nM. For the same molecule, the concentration at 0.33 h (in vivo [5]; 0.1 mg/kg) was 0.58 nM, the concentration at 0.5 h (in vivo [5]; 0.1 mg/kg) was 0.81 nM and the concentration at 0.75 h (in vivo [5]; 0.1 mg/kg) was 1.19 nM. For the same molecule, the concentration at 1 h (in vivo [5]; 0.1 mg/kg) was 1.56 nM, the concentration at 2 h (in vivo [5]; 0.1 mg/kg) was 2.66 nM and the concentration at 4 h (in vivo [5]; 0.1 mg/kg) was 3.26 nM. It also gave a concentration at 6 h (in vivo [5]; 0.1 mg/kg) of 3.32 nM, a concentration at 8 h (in vivo [5]; 0.1 mg/kg) of 3.49 nM and a concentration at 10 h (in vivo [5]; 0.1 mg/kg) of 2.97 nM. It also gave a concentration at 12 h (in vivo [5]; 0.1 mg/kg) of 2.84 nM, a concentration at 24 h (in vivo [5]; 0.1 mg/kg) of 1.72 nM and an AUC (in vivo [5]; po, 0.001 mg/kg) of 0.29 nM·h. It also gave a Cmax (in vivo [5]; po, 0.001 mg/kg) of 0.035 nM, an AUC (in vivo [5]; po, 0.01 mg/kg) of 2.94 nM·h and a Cmax (in vivo [5]; po, 0.01 mg/kg) of 0.349 nM. It also gave an AUC (in vivo [5]; po, 0.03 mg/kg) of 8.81 nM·h, a Cmax (in vivo [5]; po, 0.03 mg/kg) of 1.05 nM and an AUC (in vivo [5]; po, 0.1 mg/kg) of 29.4 nM·h. For the same molecule, the Cmax (in vivo [5]; po, 0.1 mg/kg) was 3.49 nM, the AUC (in vivo [5]; po, 1 mg/kg) was 294 nM·h and the Cmax (in vivo [5]; po, 1 mg/kg) was 35 nM. For the same molecule, the concentration at 0 h (in vivo [5]; po, 1 mg/kg) was 0.31 nM, the concentration at 0.17 h (in vivo [5]; po, 1 mg/kg) was 1.65 nM and the concentration at 0.33 h (in vivo [5]; po, 1 mg/kg) was 5.75 nM. The concentration at 0.5 h (in vivo [5]; po, 1 mg/kg) was 8.08 nM, the concentration at 0.75 h (in vivo [5]; po, 1 mg/kg) was 11.9 nM and the concentration at 1 h (in vivo [5]; po, 1 mg/kg) was 15.6 nM. It also gave a concentration at 2 h (in vivo [5]; po, 1 mg/kg) of 26.6 nM, a concentration at 4 h (in vivo [5]; po, 1 mg/kg) of 32.6 nM and a concentration at 6 h (in vivo [5]; po, 1 mg/kg) of 33.2 nM. The concentration at 8 h (in vivo [5]; po, 1 mg/kg) was 34.9 nM, the concentration at 10 h (in vivo [5]; po, 1 mg/kg) was 29.7 nM and the concentration at 12 h (in vivo [5]; po, 1 mg/kg) was 28.4 nM. The concentration at 24 h (in vivo [5]; po, 1 mg/kg) was 17.2 nM, the Vd (in vivo [6]) was 10.2 L/kg and the “Fabs (fraction absorbed)” value ([7]; dog) was 70%. It also gave a Vd ([7]; dog in vivo) of 27 L/kg.
